The target of series [1] is Histone-lysine N-methyltransferase EHMT1/EHMT2 (Homo sapiens) (UniProt Q9H9B1+Q96KQ7). Nature of the series: Inhibition of G9a/GLP in human MDA-MB-231 cells assessed as reduction in H3K9 dimethylation incubated for 3 days by Western blotting analysis. Particulars: dose 2.5-20 µM, time 3.0 day. Format: cell-based. (A western blot detects proteins with antibodies after separation by electrophoresis.)

The nature of series [2]: Cmax in ICR mouse at 2 mg/kg, iv measured upto 12 hrs by LC-MS/MS analysis. Particulars: in vivo. Format: ADME, organism-based.
Series [3] concerns MDA-MB-231. Nature of the series: Induction of apoptosis in human MDA-MB-231 cells assessed as viable cells at 5 uM incubated for 72 hrs by Annexin V and PI staining based flow cytometry analysis (reference value: 98.31 %). The note with it: read-out: Activity. In kind it is functional. For orientation: A flow cytometer gives signals particle by particle.
Series [4] has as its system 4T1. Briefly: Antiproliferative activity against mouse 4T1 cells incubated for 3 to 5 days by MTT assay. Format: functional, cell-based. Particulars: Mus musculus, 4T1; read-out: IC50.
The subject of series [5] is MDA-MB-231. Nature of the series: Antiproliferative activity against human MDA-MB-231 cells after 5 days by MTT assay. In kind it is functional, cell-based. Particulars: MDA-MB-231, 120 h. (In general: Tetrazolium assays rely on reduction of a dye to a coloured formazan, in cell work by metabolically active cells.)
For series [6], the system named is MDA-MB-231. Briefly: Induction of cell cycle arrest in human MDA-MB-231 cells assessed as accumulation of cells at G2/M phase incubated for 72 hrs by PI/RNase staining based flow cytometric analysis. Format: functional. The note with it: dose 5-20 µM.
Series [7] in a line: Cytotoxicity against human L02 cells assessed as reduction in cell viability incubated for 2 days by MTT assay. In kind it is toxicity, cell-based.
Series [8] can be described thus: Tmax in ICR mouse at 2 mg/kg, iv measured upto 12 hrs by LC-MS/MS analysis. In kind it is ADME, organism-based. The note with it: in vivo.
In series [9] the target is T1, Histone-lysine N-methyltransferase EHMT2 (Homo sapiens) (UniProt Q96KQ7).
T1 sequence (whole entry): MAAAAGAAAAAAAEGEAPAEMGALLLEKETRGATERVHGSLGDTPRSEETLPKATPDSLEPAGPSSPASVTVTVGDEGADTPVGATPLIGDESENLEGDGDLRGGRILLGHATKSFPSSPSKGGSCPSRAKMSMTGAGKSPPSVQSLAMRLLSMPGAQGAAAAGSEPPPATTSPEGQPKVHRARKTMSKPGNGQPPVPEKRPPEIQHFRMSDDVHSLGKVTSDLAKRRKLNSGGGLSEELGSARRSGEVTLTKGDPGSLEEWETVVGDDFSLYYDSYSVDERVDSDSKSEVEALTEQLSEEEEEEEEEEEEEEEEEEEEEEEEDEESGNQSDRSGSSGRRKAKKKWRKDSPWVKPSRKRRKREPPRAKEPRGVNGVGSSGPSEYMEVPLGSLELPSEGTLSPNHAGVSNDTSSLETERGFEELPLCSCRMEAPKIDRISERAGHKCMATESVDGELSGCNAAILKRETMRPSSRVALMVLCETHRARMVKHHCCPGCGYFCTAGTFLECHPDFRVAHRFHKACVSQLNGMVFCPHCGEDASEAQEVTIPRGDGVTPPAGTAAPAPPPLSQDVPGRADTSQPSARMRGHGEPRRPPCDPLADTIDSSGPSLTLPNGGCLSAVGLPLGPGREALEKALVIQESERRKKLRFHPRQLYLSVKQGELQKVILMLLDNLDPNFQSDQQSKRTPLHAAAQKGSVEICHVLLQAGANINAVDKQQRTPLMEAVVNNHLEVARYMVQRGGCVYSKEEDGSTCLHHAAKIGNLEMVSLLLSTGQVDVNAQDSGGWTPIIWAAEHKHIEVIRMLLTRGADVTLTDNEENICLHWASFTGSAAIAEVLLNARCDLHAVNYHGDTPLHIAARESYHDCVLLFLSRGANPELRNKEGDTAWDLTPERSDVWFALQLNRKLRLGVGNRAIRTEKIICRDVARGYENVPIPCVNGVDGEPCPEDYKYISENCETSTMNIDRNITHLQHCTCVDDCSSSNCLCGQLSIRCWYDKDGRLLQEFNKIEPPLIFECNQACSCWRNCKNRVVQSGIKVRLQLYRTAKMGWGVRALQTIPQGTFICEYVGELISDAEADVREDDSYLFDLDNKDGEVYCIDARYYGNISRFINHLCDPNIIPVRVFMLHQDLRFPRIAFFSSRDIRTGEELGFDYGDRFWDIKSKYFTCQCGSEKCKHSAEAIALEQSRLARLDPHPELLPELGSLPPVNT
Briefly: Inhibition of G9a (unknown origin) at 1 uM by AlphaLISA immunodetection assay relative to control.

Series [10] deals with MDA-MB-231. Nature of the series: Induction of apoptosis in human MDA-MB-231 cells assessed as early apoptotic cells at 5 uM incubated for 72 hrs by Annexin V and PI staining based flow cytometry analysis (reference value: 0.92 %). In kind it is functional.
Series [11] relates to MDA-MB-231. Briefly: Induction of apoptosis in human MDA-MB-231 cells assessed as late apoptotic cells at 10 uM incubated for 72 hrs by Annexin V and PI staining based flow cytometry analysis (reference value: 0.45 %). Format: functional.
Series [12] concerns the target T2, Histone-lysine N-methyltransferase EHMT2 (Homo sapiens, UniProt Q96KQ7).
T2 sequence (Q96KQ7 whole entry): T1 sequence (whole entry)
Nature of the series: Inhibition of G9a (unknown origin).

Series [13] in a line: Mean residence time in ICR mouse at 2 mg/kg, iv measured upto 12 hrs by LC-MS/MS analysis. Format: ADME, organism-based. The note with it: in vivo.
The subject of series [14] is MDA-MB-231. Nature of the series: Induction of apoptosis in human MDA-MB-231 cells assessed as late apoptotic cells at 20 uM incubated for 72 hrs by Annexin V and PI staining based flow cytometry analysis (reference value: 0.45 %). Format: functional.

Results on 1 molecule are retold here after ChEMBL document CHEMBL5634121, “Discovery of novel G9a/GLP covalent inhibitors for the treatment of triple-negative breast cancer” (Eur J Med Chem, 2023).

pIC50: −log10 of the molar value.

The inhibition is the percentage by which the read-out fell short of the control. What is called Cmax is the highest concentration seen after dosing. One may read the pIC50 as −log10 of the IC50, conventionally taken in molar units. A word on the IC50: it is the concentration needed to halve the response being measured. The term Tmax denotes the time from dosing to the highest level. As usually defined, the MRT is the average time that molecules of a dose stay in the body.

Sequence of Histone-lysine N-methyltransferase EHMT1/EHMT2 (Homo sapiens) (Q9H9B1 whole entry, looked up, one chain of several): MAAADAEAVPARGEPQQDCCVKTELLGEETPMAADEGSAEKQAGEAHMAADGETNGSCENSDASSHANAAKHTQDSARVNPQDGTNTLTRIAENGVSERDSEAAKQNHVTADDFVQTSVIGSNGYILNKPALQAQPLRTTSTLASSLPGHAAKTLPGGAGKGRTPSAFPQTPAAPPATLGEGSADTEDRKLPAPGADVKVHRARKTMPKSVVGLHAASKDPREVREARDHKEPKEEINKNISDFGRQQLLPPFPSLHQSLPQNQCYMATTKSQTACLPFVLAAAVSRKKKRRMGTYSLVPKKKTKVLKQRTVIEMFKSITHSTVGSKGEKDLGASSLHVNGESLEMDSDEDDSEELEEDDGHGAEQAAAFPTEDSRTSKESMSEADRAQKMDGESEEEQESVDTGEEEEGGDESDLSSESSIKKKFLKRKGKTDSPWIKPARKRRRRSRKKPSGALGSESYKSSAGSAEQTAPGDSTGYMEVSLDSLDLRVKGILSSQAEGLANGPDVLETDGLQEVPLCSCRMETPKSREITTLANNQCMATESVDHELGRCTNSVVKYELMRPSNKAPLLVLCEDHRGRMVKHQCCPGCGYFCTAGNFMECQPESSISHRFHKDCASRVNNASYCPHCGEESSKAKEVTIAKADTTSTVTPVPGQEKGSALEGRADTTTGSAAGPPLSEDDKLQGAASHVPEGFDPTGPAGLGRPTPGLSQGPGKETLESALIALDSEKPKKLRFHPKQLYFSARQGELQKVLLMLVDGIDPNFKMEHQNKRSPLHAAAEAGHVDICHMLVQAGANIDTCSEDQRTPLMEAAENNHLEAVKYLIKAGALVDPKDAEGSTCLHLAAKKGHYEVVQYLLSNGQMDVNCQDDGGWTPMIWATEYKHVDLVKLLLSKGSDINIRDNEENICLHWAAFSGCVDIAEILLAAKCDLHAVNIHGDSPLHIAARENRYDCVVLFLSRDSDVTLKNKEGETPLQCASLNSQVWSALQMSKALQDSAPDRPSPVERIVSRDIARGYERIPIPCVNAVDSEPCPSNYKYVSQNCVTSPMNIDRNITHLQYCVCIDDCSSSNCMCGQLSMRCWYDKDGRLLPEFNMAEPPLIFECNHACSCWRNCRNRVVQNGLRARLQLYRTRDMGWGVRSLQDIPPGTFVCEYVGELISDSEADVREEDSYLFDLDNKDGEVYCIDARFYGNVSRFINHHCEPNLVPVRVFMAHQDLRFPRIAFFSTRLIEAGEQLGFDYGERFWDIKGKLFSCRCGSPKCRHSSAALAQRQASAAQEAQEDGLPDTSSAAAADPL

For `C=CC(=O)Nc1cccc(-c2nc(NC3CCN(C)CC3)c3cc(OC)c(OC)cc3n2)c1`, the inhibition entry was “Dose-Dependent Effect” in series [1] and 96% in series [9]. In series [2], the Cmax worked out at 911 ng/mL. For the same molecule, the viability at 5 µM in series [3] turned out to be 94.6%. The pIC50 in [4] was 5.33; in series [5], 6.22; in [12], 5.91. Further, the Activity result in series [6] was “Dose-Dependent Effect”; in series [10] it was 1.44%; in [11], 5.89%; in [14], 34.86%. Besides, in [7], the IC50 at 2 days came to 10.3 µM. Further, the Tmax in [8] amounted to 0.42 h. In series [13], this molecule displayed an MRT of 2.3 h.
